Measurements as given in PubChem BioAssay AID1259407 (Chemical Carcinogenesis Research Information System (CCRIS), 2018).
Activity calls are given as the source filed them. How the calls were made is not given here.

Test system: CCRIS mutagenicity, Ames/micronucleus/aberration tests
Assay: CCRIS mutagenicity studies
[1] = Test System: AMES SALMONELLA TYPHIMURIUM, Strain/Indicator: TA98, Metabolic Activation: NONE, Method: PREINCUBATION
[2] = Test System: AMES SALMONELLA TYPHIMURIUM, Strain/Indicator: TA100, Metabolic Activation: NONE, Method: PREINCUBATION
[3] = Test System: AMES SALMONELLA TYPHIMURIUM, Strain/Indicator: TA1535, Metabolic Activation: NONE, Method: PREINCUBATION
[4] = Test System: AMES SALMONELLA TYPHIMURIUM, Strain/Indicator: TA1537, Metabolic Activation: NONE, Method: PREINCUBATION
[5] = Test System: AMES SALMONELLA TYPHIMURIUM, Strain/Indicator: TA1538, Metabolic Activation: NONE, Method: PREINCUBATION
[6] = Test System: AMES SALMONELLA TYPHIMURIUM, Strain/Indicator: TA98, Metabolic Activation: NONE, Method: STANDARD PLATE
[7] = Test System: AMES SALMONELLA TYPHIMURIUM, Strain/Indicator: TA98, Metabolic Activation: RAT, LIVER, S-9, AROCLOR 1254, Method: STANDARD PLATE
[8] = Test System: AMES SALMONELLA TYPHIMURIUM, Strain/Indicator: TA100, Metabolic Activation: NONE, Method: STANDARD PLATE
[9] = Test System: AMES SALMONELLA TYPHIMURIUM, Strain/Indicator: TA100, Metabolic Activation: RAT, LIVER, S-9, AROCLOR 1254, Method: STANDARD PLATE

Measured: mutagenic call

Cc1cccc(O)c1C
inactive: [1] inactive; negative | Test System: AMES SALMONELLA TYPHIMURIUM, Strain/Indicator: TA98, Metabolic Activation: RAT LIVER S-9, PHENOBARBITAL AND BETA-NAPHTHOFLAVONE, Method: PREINCUBATION inactive; negative | [2] inactive; negative | Test System: AMES SALMONELLA TYPHIMURIUM, Strain/Indicator: TA100, Metabolic Activation: RAT LIVER S-9, PHENOBARBITAL AND BETA-NAPHTHOFLAVONE, Method: PREINCUBATION inactive; negative | [3] inactive; negative | Test System: AMES SALMONELLA TYPHIMURIUM, Strain/Indicator: TA1535, Metabolic Activation: RAT LIVER S-9, PHENOBARBITAL AND BETA-NAPHTHOFLAVONE, Method: PREINCUBATION inactive; negative | [4] inactive; negative | Test System: AMES SALMONELLA TYPHIMURIUM, Strain/Indicator: TA1537, Metabolic Activation: RAT LIVER S-9, PHENOBARBITAL AND BETA-NAPHTHOFLAVONE, Method: PREINCUBATION inactive; negative | [5] inactive; negative | Test System: AMES SALMONELLA TYPHIMURIUM, Strain/Indicator: TA1538, Metabolic Activation: RAT LIVER S-9, PHENOBARBITAL AND BETA-NAPHTHOFLAVONE, Method: PREINCUBATION inactive; negative | Test System: E.COLI, Strain/Indicator: WP2UVRA, Metabolic Activation: NONE, Method: PREINCUBATION inactive; negative | Test System: E.COLI, Strain/Indicator: WP2UVRA, Metabolic Activation: RAT LIVER S-9, PHENOBARBITAL AND BETA-NAPHTHOFLAVONE, Method: PREINCUBATION inactive; negative

O=C(O)/C=C/c1cccc([N+](=O)[O-])c1
active: [2] active; positive | [8] active; positive | Test System: AMES SALMONELLA TYPHIMURIUM, Strain/Indicator: TA100, Metabolic Activation: RAT, LIVER, S-9, AROCLOR 1254, Method: PREINCUBATION active; positive | [3] active; positive
inactive: [1] inactive; negative | [6] inactive; negative | [7] inactive; negative | [9] inactive; negative | [4] inactive; negative | [5] inactive; negative

COc1ccc(C=O)cc1OC
inactive: Test System: AMES SALMONELLA TYPHIMURIUM, Strain/Indicator: TA98, Metabolic Activation: HAMSTER, LIVER, S-9, AROCLOR 1254 (10%), Method: PREINCUBATION inactive; negative | [1] inactive; negative | [6] inactive; negative | Test System: AMES SALMONELLA TYPHIMURIUM, Strain/Indicator: TA98, Metabolic Activation: RAT, LIVER, S-9, AROCLOR 1254 (10%), Method: PREINCUBATION inactive; negative | Test System: AMES SALMONELLA TYPHIMURIUM, Strain/Indicator: TA100, Metabolic Activation: HAMSTER, LIVER, S-9, AROCLOR 1254 (10%), Method: PREINCUBATION inactive; negative | [2] inactive; negative | [8] inactive; negative | Test System: AMES SALMONELLA TYPHIMURIUM, Strain/Indicator: TA100, Metabolic Activation: RAT LIVER S-9, AROCLOR 1254, Method: PREINCUBATION inactive; negative | Test System: AMES SALMONELLA TYPHIMURIUM, Strain/Indicator: TA100, Metabolic Activation: RAT, LIVER, S-9, AROCLOR 1254 (10%), Method: PREINCUBATION inactive; negative | Test System: AMES SALMONELLA TYPHIMURIUM, Strain/Indicator: TA102, Metabolic Activation: NONE, Method: PREINCUBATION inactive; negative | Test System: AMES SALMONELLA TYPHIMURIUM, Strain/Indicator: TA102, Metabolic Activation: RAT LIVER S-9, AROCLOR 1254, Method: PREINCUBATION inactive; negative | Test System: AMES SALMONELLA TYPHIMURIUM, Strain/Indicator: TA104, Metabolic Activation: NONE, Method: PREINCUBATION inactive; negative | Test System: AMES SALMONELLA TYPHIMURIUM, Strain/Indicator: TA104, Metabolic Activation: RAT LIVER S-9, AROCLOR 1254, Method: PREINCUBATION inactive; negative | Test System: AMES SALMONELLA TYPHIMURIUM, Strain/Indicator: TA1535, Metabolic Activation: HAMSTER, LIVER, S-9, AROCLOR 1254 (10%), Method: PREINCUBATION inactive; negative | [3] inactive; negative | Test System: AMES SALMONELLA TYPHIMURIUM, Strain/Indicator: TA1535, Metabolic Activation: RAT, LIVER, S-9, AROCLOR 1254 (10%), Method: PREINCUBATION inactive; negative | Test System: AMES SALMONELLA TYPHIMURIUM, Strain/Indicator: TA1537, Metabolic Activation: HAMSTER, LIVER, S-9, AROCLOR 1254 (10%), Method: PREINCUBATION inactive; negative | [4] inactive; negative | Test System: AMES SALMONELLA TYPHIMURIUM, Strain/Indicator: TA1537, Metabolic Activation: RAT, LIVER, S-9, AROCLOR 1254 (10%), Method: PREINCUBATION inactive; negative | Test System: E. COLI, Strain/Indicator: CM561 LEXA, Metabolic Activation: NONE, Method: STANDARD PLATE inactive; negative | Test System: E. COLI, Strain/Indicator: CM611 UVRA/LEXA, Metabolic Activation: NONE, Method: STANDARD PLATE inactive; negative | Test System: E. COLI, Strain/Indicator: WP2 UVRA, Metabolic Activation: NONE, Method: STANDARD PLATE inactive; negative

Cn1cnc2c(NO)ncnc21
active: [7] active; positive
inactive: Test System: AMES SALMONELLA TYPHIMURIUM, Strain/Indicator: TA97, Metabolic Activation: NONE, Method: STANDARD PLATE inactive; negative | Test System: AMES SALMONELLA TYPHIMURIUM, Strain/Indicator: TA97, Metabolic Activation: RAT, LIVER, S-9, AROCLOR 1254, Method: STANDARD PLATE inactive; negative | [6] inactive; negative | [8] inactive; negative | [9] inactive; negative
